Test results published in patent US12503432B2, “Ionizable lipids for nucleic acid delivery” (Global Life Sciences Solutions Canada ULC, priority 2019, dated 2025).

Columns and labels:
[1] = LNP characterization: size and PDI by dynamic light scattering, mRNA encapsulation efficiency by RiboGreen assay; format: physicochemical
How it was run: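 Lipid nanoparticles made by microfluidic mixing of mRNA or plasmid in 100 mM sodium acetate with ethanolic lipid mix (Ignite: 3:1 flow ratio, 12 ml/min; Spark: N/P 4, 6 or 10), diluted in PBS pH 7.4. Z-average size and PDI by backscatter DLS (173°, 633 nm, 10 runs × 2 cycles). Encapsulation by RiboGreen assay.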

[2] = TNS fluorescence assay: experimental pKa of formulated lipid nanoparticles; format: physicochemical; conditions: experimental surface pKa of empty LNP, cationic lipid/DSPC/cholesterol/PEG-lipid (50/10/38.5/1.5)
Description: The pKa of each cationic lipid was determined in lipid nanoparticles using an assay based on fluorescence of 6-(p-Toluidino)-2-naphthalenesulfonic acid sodium salt (TNS, Sigma Aldrich), which is a fluorescent probe for the conformational state of proteins^5. Empty lipid nanoparticles comprising of cationic lipid/DSPC/cholesterol/PEG-lipid (50/10/38.5/1.5) in distilled water at a concentration of 3.125 mM total lipid are formulated using NanoAssemblr® Spark™, and were then was characterized for LNP quality on the Zetasizer™ using a 30× dilution with 1×PBS in the low volume cuvette. Lipid nanoparticles were further diluted 4× using distilled water to 0.781 mM total lipid. TNS was prepared as a 25 μM stock solution in distilled water. Then 6.4 μL of diluted LNP samples of 0.781 mM total lipid were mixed with 10 μL of diluted TNS to a final volume of 250 μL with buffer containing 10 mM HEPES, 10 mM MES, 10 mM NH4OAc and 130 mM NaCl where the pH ranged from 3 to 9 in 0.5 pH increments.
Samples were mixed thoroughly, and the fluorescence intensity was measured at room temperature in a BioTek™ Synergy™ H1 Hybrid Multi-Mode Monochromator™ Fluorescence Microplate Reader using excitation and emission wavelengths of 321 nm and 445 nm respectively. A sigmoidal best fit analysis was applied to the fluorescence data using GraphPad Prism™ software, and the pKa was measured as the pH at half-maximal fluorescence intensity.

[3] = 5-moU EPO encoded LNPs, IL:DSPC:cholesterol:DMG-PEG (50:10:38.5:1.5), N/P 6
[4] = Table 4 LNPs, payload and lipid mix not stated

## CC/C=C\CC1C(CC(=O)OCCC(CCCCCCCC)OC(=O)C(CCCCCC)CCCCCCCC)CCC1OC(=O)C1(C)CCN(C)CC1 (stereo not shown) [PNI 565]
[1]; [3]
  Diameter (Z. ave, nm): 60.8 nm
  Encapsulation Efficiency (%): 97.9%
  Polydispersity Index (PDI): 0.03
[1]; [4]
  Diameter (Z. ave, nm): 69.9 nm
  Encapsulation Efficiency (%): 97.4%
  Polydispersity Index (PDI): 0.03
[2]
  pKa: 5.99
